Results on three compounds are retold here after patent US4853401A, “Spiro-hydantoins as aldose reductase inhibitors” (priority 1987, dated 1989).

For data set [1], the system named is accumulation of sorbitol in the sciatic nerves. The experiment in a line: Inhibition of accumulation of sorbitol in sciatic nerves of diabetic rats. To be noted: oral 25 mg/kg at 0, 7 and 24 h, sacrificed 27 h. The format is in vivo, Sprague Dawley rats. The procedure:
(§1) 2.1 Inhibition of accumulation of sorbitol in crystalline lenses and nerves of diabetic rats:
(§2) The effects of the products according to the invention on the proportion of plasma glucose and the accumulation of sorbitol in the crystalline lenses and sciatic nerves of rats made diabetic by streptozotocin were examined by the method of M. J. Peterson, et al (Metabolism, 28, 456-461 (1979)).
(§3) Fasted Sprague Dawley rats were made diabetic by intraperitoneal injection of streptozotocin (75 mg/kg). The product under test was orally administered at a dose of 25 mg/kg after 0, 7 and 24 hours. The rats were sacrificed 27 hours after induction of diabetes. The crystalline lenses and sciatic nerves were taken and preserved at -20° C. until analysed. The crystalline lenses and sciatic nerves were homogenized in water and the proteins were precipitated from ethanol. The precipitate was eliminated by centrifuging and the supernatant liquid was lyophylised. The sorbitol in the sample was determined by the method of B. Bjorkqvist (J. of Chromatograph, 218, 65-71 (1981)), adapted by A. Lenaers et al. (Arch. Intern. Physiol. Bioch., 91, B, 62-63 (1983)).
(§4) The sample was dissolved in pyridine containing galactitol as an internal standard. Derivatives were formed therefrom by phenylisocyanate during incubation for 1 hour at 60° C. The reaction was then stopped by adding methanol and the derivatives were separated and determined by HPLC.
(§5) The results are expressed as percentage inhibition of the accumulation of sorbitol, compared with the controls.

Data set [2] can be described thus: Solubility in the aldose reductase test medium. The format is physicochemical. To be noted: 10^-4 M, aqueous phosphate buffer pH 6.2. The procedure: (§6) The effect of products according to the invention in inhibiting enzymatic activity of aldose reductase was determined by spectrophotometrically following for 5 minutes the disappearance of NADPH in an aqueous solution containing 0.067M phosphate buffer (final pH: 6.2), 0.40M lithium sulphate, 5.10^-5 M NADPH, 10^-4 M of the product under test and 100 μl of the enzyme solution, to which 10^-2 M of D,L-glyceraldehyde had been added as substrate. (NADPH=reduced form of nicotinamide adenine dinucleotide phosphate).

In data set [3] the test system is accumulation of sorbitol in the crystalline lenses. The experiment in a line: Inhibition of accumulation of sorbitol in crystalline lenses of diabetic rats. To be noted: for Inhibition of accumulation of sorbitol in vivo, crystalline lenses: oral 25 mg/kg at 0, 7 and 24 h, sacrificed 27 h. It counts as in vivo, Sprague Dawley rats. The procedure: as §1, §2, §3, §4, §5

In data set [4] the test system is accumulation of galactitol in fibroblasts obtained from human skin. The experiment in a line: Inhibition of accumulation of galactitol in fibroblasts. It counts as cell-based. To be noted: Fibroblast, 48 h, 37° C., galactose 3 mg/ml. As for the experimental part: 1.2 Inhibiting effect on accumulation of galactitol:
A test for evaluating this activity was made in vitro on fibroblasts obtained from human skin.
An experimental model culture was obtained by incubating the cells in the presence of a medium containing a high concentration of galactose (3 mg/ml) and the product under test, and measuring the accumulation of galactitol in the cells after a 48-hour incubation period at 37° C. The cells were then isolated, washed in physiological salt solution and treated with a water-ethanol solution. The medium was centrifuged and the supernatant liquid was lyophylized.
The galactitol in the resulting sample was determined by HPLC (=high pressure liquid chromatography) after derivatives had been obtained with phenyl isocyanate.
The proportion of proteins in the precipitate obtained during the previously-mentioned centrifuging was measured by the method of M. M. Bradford (Anal. Biochem., 72, 248-254 (1976)) and indicated the number of cells present in the sample.
The inhibiting effect of the tested product was expressed as a percentage inhibition of intracellular accumulation of galactitol compared with the controls.

Data set [5] in a line: Acute oral toxicity (LD50). To be noted: mouse, in vivo, mice, read-out: Lethal dose LD50. It counts as in vivo. The procedure:
(§7) The LD 50 was calculated by the method of Litchfield and Wilcoxon (J. Pharmacol. Exp. Ther., 96, 99, 1949) and is expressed in mg/kg. The products were orally administered to mice.
(§8) Behaviour was studied, 2, 4, 6 and 24 hours after treatment. Observation was continued if symptoms persisted at that time. Deaths were recorded during the 14 days after treatment. The results are given in Table II, in which the numbers of the compounds are the same as the numbers given in column 1 of Table I.

Data set [6] is described as follows: Effect of in vivo doses on plasma glucose of diabetic rats. To be noted: n = 5, average ± standard deviation. Also on record: species or system Sprague Dawley rats. The procedure: Compound No. 1 (CP 3182 AR) and No. 2 (CP 3192 AR) were evaluated at various doses, using the experimental model described hereinbefore (.sctn.2.1).
In the case of each product, 25 Sprague Dawley rats fasted the previous day were made diabetic by an intraperitoneal injection of streptozotocin (75 mg/kg). The rats were divided into 5 groups of 5, each orally given 0.3, […] or 10 mg/kg of CP 3182 AR or a control.
An identical experiment was performed with CP 3192 AR at the same doses. Treatment was given immediately after the streptozotocin, and 7 and 24 hours later. The animals were sacrificed 27 hours after induction. Estimates were made of the effects of the products on the proportion of plasma glucose and the sorbitol content of the crystalline lenses and sciatic nerves of rats.

The subject of data set [7] is mice. Description: Effect on behaviour (Irwin method), side effects. It counts as in vivo. As for the experimental part:
The effect on behaviour was studied by a method derived from that of S. Irwin (Gordon Res. Conf. on Medicinal Chem., 133, 1959). The substances, suspended in 1% tragacanth mucilage, were orally administered via an intra-gastric probe to groups of 5 male mice fasted for 18 hours. The maximum tested dose was 3 000 mg/kg or 1 000 mg/kg, and smaller doses were tested if an effect has been observed.
as §8

Data set [8] relates to sorbitol accumulation in sciatic nerves. The experiment in a line: Effect of in vivo doses on sorbitol accumulation in sciatic nerves of diabetic rats. To be noted: for ED50: Rattus norvegicus, 27 h, diabetic rats, oral, read-out: ED50 (dose at which measured inhibition of aldose reductase activity is 50%); for ED50 / therapeutic index MED/ED50, sciatic nerves: sciatic nerves. Further details: species or system Sprague Dawley rats. From the text:
(§9) 2.2 Effect of "in vivo" doses on sorbitol accumulation in sciatic nerves and crystalline lenses of diabetic rats:
(§10) Estimates were made of the effects of the products on the proportion of plasma glucose and the sorbitol content of the crystalline lenses and sciatic nerves of rats.

In data set [9] the target is T1, aldose reductase (Rattus norvegicus, UniProt P07943).
T1 construct: The supernatant liquid formed the enzyme solution used for the test; from tissue; host or cells: rat crystalline lens, water homogenate, supernatant
Description: Inhibition of enzymatic activity of aldose reductase in vitro. The format is biochemical. To be noted: 10^-4 M, rat crystalline lens enzyme, pH 6.2, D,L-glyceraldehyde substrate; read-out: Inhibition of enzymatic activity of AR in vitro.
From the text: 1.1 Inhibiting effect on enzymatic activity of aldose reductase:
The method described by S. Hayman and J. H. Kinoshita (J. Biol. Chem., 240, 877 (1965)) was used for in vitro testing of the aforementioned effect of the products according to the invention.
Rat's crystalline lens was homogenized in water and centrifuged to eliminate insoluble substances. The supernatant liquid formed the enzyme solution used for the test.
as §6
The inhibiting effect observed in the presence of 10^-4 M of product under test relative to the reaction in the absence of a compound according to the invention, is expressed as a percentage.

The subject of data set [10] is sorbitol accumulation in crystalline lenses. The experiment in a line: Effect of in vivo doses on sorbitol accumulation in crystalline lenses of diabetic rats. To be noted: for ED50: Rattus norvegicus, 27 h, diabetic rats, oral, read-out: ED50 (dose at which measured inhibition of aldose reductase activity is 50%); for ED50 / therapeutic index MED/ED50, crystalline lenses: crystalline lenses. Further details: species or system Sprague Dawley rats.
From the text: as §9, §10

Data set [11] relates to mice. Description: Acute oral toxicity (LD50). The format is in vivo. To be noted: 3 000 mg/kg. The procedure: as §7, §8

As a reminder, the inhibition is the change of the read-out against control, counted positive when it falls. Broadly, the LD50 is the dose at which mortality reaches 50%. As a reminder, the ED50 is the midpoint of the dose-response relation.

Regarding `O=C(Cc1ccccc1)OCN1C(=O)N(COC(=O)Cc2ccccc2)C2(C1=O)c1ccccc1-c1ccccc12` [Compound 23], in [1], the “Inhibition of accumulation of sorbitol in vivo, in sciatic nerves” value (from here on “Inhibition … in sciatic nerves”) is recorded as 7%. Further, the “insolubility in the tested medium” value in data set [2] is “insol”. In data set [3], the “Inhibition of accumulation of sorbitol in vivo, crystalline lenses” value (“Inhibition … in vivo, crystalline lenses” for short) is 5%.

Regarding `O=C1N(CO)C(=O)C2(c3ccccc3-c3ccccc32)N1CO` [Compound 1, bis-(1',3'-hydroxymethyl)-spiro-/fluorene-9,4'-imidazolidine/-2',5'-dione], the inhibition at 100 µM came to 85% in data set [4] (10^-4 M) and 34% in data set [9]. In addition, in data set [4] (10^-5 M), the inhibition at 10 µM is 58%. Further, the inhibition at 1 µM in data set [4] (10^-6 M) was 21%. In data set [5], the LD50 at 336 h was above 3000 mg/kg. Besides, the Plasma glucose in [6] (0.3 mg/kg oral) amounted to 462 ± 60 mg/100 ml; in data set [6] (1 mg/kg oral) it was 538 ± 34 mg/100 ml; in data set [6] (3 mg/kg oral) it was 464 ± 62 mg/100 ml; in data set [6] (10 mg/kg oral), 424 ± 37 mg/100 ml. Further, the “Inhibition … in sciatic nerves” value in [1] was 85%. Moreover, the side effect observed entry in [7] (dose of 3000 mg/kg) is given as “no side effect was observed”. In addition, the “MED (minimum dose at which a side effect is observed)” value in data set [7] (mice, oral) is on record as > 3 000 mg/kg. Also, the “% inhibition of sorbitol accumulation, Sciatic nerves” value is on record as 29 ± 14% in data set [8] (0.3 mg/kg oral at 0, 7, 24 h); 41 ± 10% in data set [8] (1 mg/kg oral at 0, 7, 24 h); 69 ± 8% in [8] (3 mg/kg oral at 0, 7, 24 h); 82 ± 6% in [8] (10 mg/kg oral at 0, 7, 24 h). The ED50 in data set [8] worked out at 1 mg/kg; in data set [10], 3 mg/kg. Further, in data set [8], the “therapeutic index MED/ED50, sciatic nerves” value was “above 3 000”. The “Inhibition … in vivo, crystalline lenses” value in data set [3] came to 81%. For the same compound, the “inhibition of accumulation of sorbitol in crystalline lenses and sciatic nerves (in words)” value in data set [3] (oral 25 mg/kg, lenses and sciatic nerves) was “particularly active”. Moreover, the “% inhibition of sorbitol accumulation, Crystalline lenses” value in data set [10] (0.3 mg/kg oral at 0, 7, 24 h) worked out at 0 ± 21%; in [10] (1 mg/kg oral at 0, 7, 24 h) it was 1 ± 3%; in data set [10] (3 mg/kg oral at 0, 7, 24 h) it was 41%; in data set [10] (10 mg/kg oral at 0, 7, 24 h) it was 71%. In addition, in data set [10], the “therapeutic index MED/ED50, crystalline lenses” value is listed as “about 1 000”.

Regarding `O=C1NC(=O)[C@@]2(CCOc3ccc(F)cc32)N1` [sorbinil, d-6-fluoro-spiro-/chromane-4,4'-imidazolidine/-2',5'-dione, reference compound], in data set [11], the mortality entry is listed as “all the mice died on the second day”. In [5], the LD50 at 336 h was determined as 1450 mg/kg. Also, the “Inhibition … in sciatic nerves” value in [1] is given as 85%. Also, the “MED (minimum dose at which a side effect is observed)” value in [7] (mouse, in vivo, po) came out at 300 mg/kg. For the same compound, in data set [7] (mouse, in vivo, po, 300 mg/kg), the “duration of side effects” value is recorded as “more than 24 hours”; the side-effects result is “depression with loss of righting reflex and muscular hypotonia”. In data set [8], the ED50 was determined as 1 mg/kg and the “therapeutic index MED/ED50, sciatic nerves” value amounted to 300. Also, in data set [3], the “Inhibition … in vivo, crystalline lenses” value is listed as 93%. In data set [10], the ED50 was 1 mg/kg and the “therapeutic index MED/ED50, crystalline lenses” value is given as 300.
